± gives the expanded uncertainty stated by the source.
Conditions: Crystal; thermal gravimetric analysis

With `O=[N+]([O-])c1cc([N+](=O)[O-])c(O)c(Cl)c1O` [2-chloro-4,6-dinitroresorcinol] as the compound, how does the Normal melting temperature read?
The Normal melting temperature was 185.00 ± 0.01 °C.
